Patent publication US9474790B2, “Stable, protracted GLP-1/glucagon receptor co-agonists for medical use” (Novo Nordisk A/S, priority 2013, dated 2016)
Numbered stars: 1 amine (or outer) side, 2 acyl side, 3 side chain; on linkers, the order of the positions; unused ones are H or OH. Square brackets hold non-standard residues; d marks the D form. Side chains are listed from the residue outwards. Peptide text beside a SMILES is read from it. * marks the point of attachment. C18 diacid = O=C(O)CCCCCCCCCCCCCCCCC(=O)*; γGlu = O=C(O)[C@H](CCC(=O)[*:2])N[*:1]; AEEA = NCCOCCOCC(=O)O; Aib = CC(C)(N)C(=O)O

Assays:
[1] = Chemical stability assessment by RP-UPLC; assay type: physicochemical; conditions: 333 μM, 8 mM phosphate buffer pH 7.3, 37° C. vs 5° C.
Experimental: The purpose of this assay was to assess the chemical stability of the glucagon derivatives of the invention in aqueous solutions.
Chemical stability of glucagon derivatives or analogues was investigated by RP-UPLC separation and UV detection. Lyophilized samples were dissolved in a 8 mM Phosphate buffer pH 8.6, followed by adjustment to pH 7.3.using HCl to a final concentration of 333 μM. Samples were incubated for 14 days at 5° C. and 37° C. followed by RP-UPLC analysis. Purity was defined as the area percentage of the main peak in relation to the total area of all integrated peaks in each chromatogram. Purity loss after 14 days at 37° C. was determined as the difference in purity between the samples incubated at 5° C. and 37° C., divided by the purity of the sample after incubation for 14 days at 5° C.
RP-UPLC analysis was performed using a Waters BEH130 2.1 mm×150 mm, 1.7 μm column operated at 50° C. and a flow rate of 0.4 mL/min using a mobile phase system consisting of A: 0.05% TFA in MQ-water B: 0.05% TFA in Acetonitrile. UV-detection was performed at 215 nm. The typical gradient profile used for most of the samples is shown below.
For some individual derivatives or analogues eluting at substantially different retention times compared with the majority of derivatives or analogues, some adjustments to the gradient profile were made to better enable purity assessment comparison across samples. The data confirmed the improved chemical stability of the glucagon derivatives of this invention.

[2] = Thioflavin T (ThT) fibrillation assay for physical stability; assay type: physicochemical; conditions: 250 μM in 10 mM HEPES buffer, pH 7.5, 37° C., shaking 960 rpm
Method in brief: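 Fibrillation was followed by ThT (1 μM) fluorescence every 20 min, 444/485 nm, for 250 μM peptide in 10 mM HEPES pH 7.5 shaken at 960 rpm, 37° C. Lag time (t0−2τ) and apparent rate constant (1/τ) come from a sigmoidal fit. Recovery is % of initial concentration remaining soluble after centrifugation and filtration (RP-HPLC).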

human GLP-1 receptor [3] = biological target: T1, human GLP-1 receptor (Homo sapiens, UniProt P43220); assay: GLP-1 receptor binding, 125I-GLP-1 displacement SPA on isolated membranes; conditions: displacement of 125I-GLP-1 from membranes; read-out: IC50 GLP-1R
T1 construct: expressed in transfected cells; host or cells: BHK cells (parent BHKTS13), clone FCW467-12A/KZ10-1, with CRE luciferase
T1 sequence (P43220 24-463): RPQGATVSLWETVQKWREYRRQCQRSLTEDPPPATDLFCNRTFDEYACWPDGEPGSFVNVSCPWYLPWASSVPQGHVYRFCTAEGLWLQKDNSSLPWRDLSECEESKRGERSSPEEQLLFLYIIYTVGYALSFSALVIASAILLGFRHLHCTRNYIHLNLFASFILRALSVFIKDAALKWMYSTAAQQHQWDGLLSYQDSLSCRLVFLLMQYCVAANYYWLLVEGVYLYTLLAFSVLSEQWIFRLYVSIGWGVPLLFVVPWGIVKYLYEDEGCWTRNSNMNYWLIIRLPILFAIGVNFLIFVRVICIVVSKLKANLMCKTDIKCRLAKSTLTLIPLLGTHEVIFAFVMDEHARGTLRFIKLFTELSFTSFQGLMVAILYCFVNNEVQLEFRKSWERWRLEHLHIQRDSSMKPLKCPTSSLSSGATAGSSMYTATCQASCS
Method in brief: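 Test derivatives, serially diluted, competed with 125I-GLP-1(7-36)NH2 for the human GLP-1 receptor on BHK membranes, read by WGA-bead scintillation proximity after 2 h at 30°C, pH 7.4 HEPES/EGTA/MgCl2 buffer. Final serum albumin was either ≤0.001% or 2.0%; IC50 from non-linear fit.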

human GLP-1 receptor [4] = biological target: T1, human GLP-1 receptor; assay: GLP-1 receptor potency, CRE luciferase reporter gene assay in BHK cells; assay type: cell-based; conditions: BHK cells expressing human GLP-1 receptor, read-out: EC50 GLP-1R
Method in brief: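 Potency as cAMP-driven firefly luciferase signal after 3 h, 37° C exposure to 10-fold dilutions (final 1×10EE-13–1×10EE-6 M). Stable hGLP-1R/CRE-luc BHK clone, 5×10EE3 cells/well, medium containing 2% ovalbumin and 0.2% Pluronic F-68; EC50 (pM) from variable-slope non-linear regression.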

Purity loss; 14 days at 37° C. [1] [%] | THT assay Lag time (Ex. 76) [2] [h] | IC50 (human GLP-1 receptor [3]) [nM] | EC50 (human GLP-1 receptor [4]) [nM] | Compound
1 | 45 | – | – | CC(C)C[C@H](NC(=O)[C@H](Cc1ccc(O)cc1)NC(=O)[C@H](CCCCN)NC(=O)[C@H](CO)NC(=O)[C@H](CC(C)C)NC(=O)[C@H](CC(=O)O)NC(=O)[C@H](CO)NC(=O)[C@@H](NC(=O)[C@H](Cc1ccccc1)NC(=O)[C@@H](NC(=O)CNC(=O)[C@H](CCC(N)=O)NC(=O)C(C)(C)NC(=O)[C@@H](N)Cc1c[nH]cn1)[C@@H](C)O)[C@@H](C)O)C(=O)N[C@@H](CCC(=O)O)C(=O)N[C@@H](CO)C(=O)N[C@@H](CCCCN)C(=O)N[C@@H](CCCNC(=N)N)C(=O)N[C@@H](C)C(=O)N[C@@H](CCCNC(=N)N)C(=O)N[C@@H](CCC(=O)O)C(=O)N[C@@H](Cc1ccccc1)C(=O)N[C@H](C(=O)N[C@@H](CCC(N)=O)C(=O)N[C@@H](Cc1c[nH]c2ccccc12)C(=O)N[C@@H](CC(C)C)C(=O)N[C@@H](CC(C)C)C(=O)N[C@@H](CCCCNC(=O)CC[C@H](NC(=O)CC[C@H](NC(=O)COCCOCCNC(=O)COCCOCCNC(=O)CC[C@H](NC(=O)CCCCCCCCCCCCCCCCC(=O)O)C(=O)O)C(=O)O)C(=O)O)C(=O)N[C@H](C(N)=O)[C@@H](C)O)C(C)C [Example 22, N^ε29-[(4S)-4-carboxy-4-[[(4S)-4-carboxy-4-[[2-[2-[2-[[2-[2-[2-[[(4S)-4-carboxy-4-(17-carboxyheptadecanoylamino)butanoyl]amino]ethoxy]ethoxy]acetyl]amino]ethoxy]ethoxy]acetyl]amino]butanoyl]amino]butanoyl]-[Aib2,Leu10,Glu15,Lys17,Arg20,Glu21,Leu27,Lys28]-Glucagon amide] (H-H[Aib]QGTFTSDLSKYLESKRAREFVQWLLK([γGlu-γGlu-AEEA-AEEA-γGlu-C18 diacid])T-NH2; N-terminus assumed)
– | – | 0.5 | 0.003 | CC(C)C[C@H](NC(=O)[C@H](Cc1ccc(O)cc1)NC(=O)[C@H](CCCNC(=N)N)NC(=O)[C@H](CO)NC(=O)[C@@H](NC(=O)[C@H](CC(=O)O)NC(=O)[C@H](CO)NC(=O)[C@@H](NC(=O)[C@H](Cc1ccccc1)NC(=O)[C@@H](NC(=O)CNC(=O)[C@H](CCC(N)=O)NC(=O)C(C)(C)NC(=O)[C@@H](N)Cc1c[nH]cn1)[C@@H](C)O)[C@@H](C)O)C(C)C)C(=O)N[C@@H](CC(=O)O)C(=O)N[C@@H](C)C(=O)N[C@@H](CCCNC(=N)N)C(=O)N[C@@H](CCCNC(=N)N)C(=O)N[C@@H](C)C(=O)N[C@@H](CCC(N)=O)C(=O)N[C@@H](CC(=O)O)C(=O)N[C@@H](Cc1ccccc1)C(=O)N[C@H](C(=O)N[C@@H](CCC(N)=O)C(=O)N[C@@H](Cc1c[nH]c2ccccc12)C(=O)N[C@@H](CC(C)C)C(=O)N[C@@H](CC(C)C)C(=O)N[C@@H](CCCCNC(=O)COCCOCCNC(=O)COCCOCCNC(=O)CC[C@H](NC(=O)CC[C@H](NC(=O)CC[C@H](NC(=O)CCCCCCCCCCCCCCCCC(=O)O)C(=O)O)C(=O)O)C(=O)O)C(=O)N[C@H](C(N)=O)[C@@H](C)O)C(C)C [Example 72, N^ε28-[2-[2-[2-[(2-[2-[2-[[(4S)-4-carboxy-4-[[(4S)-4-carboxy-4-[[(4S)-4-carboxy-4-(17-carboxyheptadecanoylamino)butanoyl]amino]butanoyl]amino]butanoyl]amino]ethoxy]ethoxy]acetyl]amino]ethoxy]ethoxy]acetyl]-[Aib2,Val10,Arg12,Ala16,Leu27,Lys28]-Glucagon amide] (H-H[Aib]QGTFTSDVSRYLDARRAQDFVQWLLK([AEEA-AEEA-γGlu-γGlu-γGlu-C18 diacid])T-NH2)
– | – | 1.5 | 0.005 | CC(C)C[C@H](NC(=O)[C@H](CC(=O)O)NC(=O)[C@H](CC(C)C)NC(=O)[C@H](Cc1ccc(O)cc1)NC(=O)[C@H](CCCNC(=N)N)NC(=O)[C@H](CO)NC(=O)[C@@H](NC(=O)[C@H](CC(=O)O)NC(=O)[C@H](CO)NC(=O)[C@@H](NC(=O)[C@H](Cc1ccccc1)NC(=O)[C@@H](NC(=O)CNC(=O)[C@H](CCC(N)=O)NC(=O)C(C)(C)NC(=O)[C@@H](N)Cc1c[nH]cn1)[C@@H](C)O)[C@@H](C)O)C(C)C)C(=O)N[C@@H](CCCNC(=N)N)C(=O)N[C@@H](CCCNC(=N)N)C(=O)N[C@@H](C)C(=O)N[C@@H](CCC(N)=O)C(=O)N[C@@H](CC(=O)O)C(=O)N[C@@H](Cc1ccccc1)C(=O)N[C@H](C(=O)N[C@@H](CCC(N)=O)C(=O)N[C@@H](Cc1c[nH]c2ccccc12)C(=O)N[C@@H](CC(C)C)C(=O)N[C@@H](CC(C)C)C(=O)N[C@@H](CCCCNC(=O)COCCOCCNC(=O)COCCOCCNC(=O)CC[C@H](NC(=O)CC[C@H](NC(=O)CC[C@H](NC(=O)CCCCCCCCCCCCCCCCC(=O)O)C(=O)O)C(=O)O)C(=O)O)C(=O)N[C@H](C(N)=O)[C@@H](C)O)C(C)C [Example 73, N^ε28-[2-[2-[2-[[2-[2-[2-[[(4S)-4-carboxy-4-[[(4S)-4-carboxy-4-[[(4S)-4-carboxy-4-(17-carboxyheptadecanoylamino)butanoyl]amino]butanoyl]amino]butanoyl]amino]ethoxy]ethoxy]acetyl]amino]ethoxy]ethoxy]acetyl]-[Aib2,Val10,Arg12,Leu16,Leu27,Lys28]-Glucagon amide] (H-H[Aib]QGTFTSDVSRYLDLRRAQDFVQWLLK([AEEA-AEEA-γGlu-γGlu-γGlu-C18 diacid])T-NH2)
